Patent publication US10168342B2, “Lipid probes and uses thereof” (THE SCRIPPS RESEARCH INSTITUTE, priority 2015, dated 2019)
Read-outs that look alike come from different tables or passages of the source.

How the values were obtained:
[1] = molecular target: AEA-DA lipid probe targets in Neuro2a cells (Mus musculus, UniProt Q9CYN2)
[2] = molecular target: AEA-DA lipid probe targets in Neuro2a cells (Mus musculus, UniProt P52293)
[3] = molecular target: T1, AEA-DA lipid probe targets in Neuro2a cells (Mus musculus, UniProt Q8BIJ6); settings: protein Iars2, Neuro2a cells
T1 sequence (Q8BIJ6 49-1012): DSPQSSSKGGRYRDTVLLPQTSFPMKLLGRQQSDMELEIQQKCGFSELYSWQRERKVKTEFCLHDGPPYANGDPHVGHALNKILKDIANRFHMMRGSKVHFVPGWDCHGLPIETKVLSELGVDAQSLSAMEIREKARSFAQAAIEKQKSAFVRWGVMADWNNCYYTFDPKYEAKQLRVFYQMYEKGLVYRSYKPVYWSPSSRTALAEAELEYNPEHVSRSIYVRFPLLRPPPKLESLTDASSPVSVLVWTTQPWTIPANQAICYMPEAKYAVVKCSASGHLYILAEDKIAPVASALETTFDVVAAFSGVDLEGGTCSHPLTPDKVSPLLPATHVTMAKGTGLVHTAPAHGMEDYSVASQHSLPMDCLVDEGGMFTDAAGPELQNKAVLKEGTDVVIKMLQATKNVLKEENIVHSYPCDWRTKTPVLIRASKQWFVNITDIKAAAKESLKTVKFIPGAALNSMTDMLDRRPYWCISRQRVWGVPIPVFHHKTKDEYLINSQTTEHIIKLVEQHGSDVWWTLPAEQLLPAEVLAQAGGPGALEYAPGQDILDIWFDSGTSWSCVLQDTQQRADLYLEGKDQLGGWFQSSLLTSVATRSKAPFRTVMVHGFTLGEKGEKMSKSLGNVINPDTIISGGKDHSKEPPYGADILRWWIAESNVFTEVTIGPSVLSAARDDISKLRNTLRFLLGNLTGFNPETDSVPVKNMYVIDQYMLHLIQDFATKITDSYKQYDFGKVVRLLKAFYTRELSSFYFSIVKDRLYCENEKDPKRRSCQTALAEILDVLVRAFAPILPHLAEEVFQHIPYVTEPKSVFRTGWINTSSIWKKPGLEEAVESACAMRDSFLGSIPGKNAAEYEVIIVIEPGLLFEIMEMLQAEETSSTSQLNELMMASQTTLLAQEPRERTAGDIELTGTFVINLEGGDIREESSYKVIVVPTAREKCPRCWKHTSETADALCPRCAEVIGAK

[4] = molecular target: T2, AEA-DA lipid probe targets in Neuro2a cells (Mus musculus, UniProt Q8BSF4)
T2 sequence (Q8BSF4 50-406): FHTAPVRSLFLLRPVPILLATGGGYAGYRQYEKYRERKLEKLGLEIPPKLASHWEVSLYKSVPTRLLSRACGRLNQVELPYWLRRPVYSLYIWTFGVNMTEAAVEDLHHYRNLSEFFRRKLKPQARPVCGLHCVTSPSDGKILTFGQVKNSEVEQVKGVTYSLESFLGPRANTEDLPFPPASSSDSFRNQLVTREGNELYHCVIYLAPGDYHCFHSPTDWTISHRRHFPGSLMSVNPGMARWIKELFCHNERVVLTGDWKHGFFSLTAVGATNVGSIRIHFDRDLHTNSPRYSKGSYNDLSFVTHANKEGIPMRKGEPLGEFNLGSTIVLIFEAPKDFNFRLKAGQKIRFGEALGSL

[5] = molecular target: T3, AEA-DA lipid probe targets in Neuro2a cells (Mus musculus, UniProt Q8BHC4); settings: for SILAC ratio, DCAKD (Q8BHC4): Neuro2a cells, AEA-DA probe
T3 sequence (Q8BHC4 1-231): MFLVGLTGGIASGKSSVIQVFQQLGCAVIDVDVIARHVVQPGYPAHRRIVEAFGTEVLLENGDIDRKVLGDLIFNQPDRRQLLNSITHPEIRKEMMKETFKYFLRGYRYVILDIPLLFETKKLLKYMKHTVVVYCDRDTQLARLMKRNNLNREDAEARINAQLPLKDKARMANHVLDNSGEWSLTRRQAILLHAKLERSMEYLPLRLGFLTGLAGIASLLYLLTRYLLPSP

[6] = molecular target: T4, AEA-DA lipid probe targets in Neuro2a cells (Mus musculus, UniProt Q07646)
T4 sequence (Q07646 1-335): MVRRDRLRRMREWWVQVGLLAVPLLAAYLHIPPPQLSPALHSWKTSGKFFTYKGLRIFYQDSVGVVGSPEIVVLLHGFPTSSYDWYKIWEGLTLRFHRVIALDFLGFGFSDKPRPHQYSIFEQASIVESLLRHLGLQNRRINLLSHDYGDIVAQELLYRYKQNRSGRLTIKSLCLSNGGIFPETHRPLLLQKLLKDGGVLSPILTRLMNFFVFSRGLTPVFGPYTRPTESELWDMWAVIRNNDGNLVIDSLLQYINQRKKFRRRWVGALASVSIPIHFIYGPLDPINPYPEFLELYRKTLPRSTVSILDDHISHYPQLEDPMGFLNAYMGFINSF

[7] = molecular target: T5, AEA-DA lipid probe targets in Neuro2a cells (Mus musculus, UniProt P51174)
T5 sequence (P51174 31-430): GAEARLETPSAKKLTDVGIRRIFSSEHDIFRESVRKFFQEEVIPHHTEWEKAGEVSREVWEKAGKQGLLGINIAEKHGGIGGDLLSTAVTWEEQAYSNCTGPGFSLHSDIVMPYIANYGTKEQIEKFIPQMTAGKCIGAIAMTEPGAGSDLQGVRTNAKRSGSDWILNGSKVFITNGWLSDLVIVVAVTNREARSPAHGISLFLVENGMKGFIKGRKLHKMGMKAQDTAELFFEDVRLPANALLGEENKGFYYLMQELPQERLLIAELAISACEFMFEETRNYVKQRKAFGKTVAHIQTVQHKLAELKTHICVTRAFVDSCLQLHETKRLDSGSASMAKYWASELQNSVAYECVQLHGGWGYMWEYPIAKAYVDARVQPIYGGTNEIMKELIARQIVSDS

AEA-DA lipid probe targets in Neuro2a cells (Mus musculus, UniProt Q9CYN2), sequence (Q9CYN2 whole entry): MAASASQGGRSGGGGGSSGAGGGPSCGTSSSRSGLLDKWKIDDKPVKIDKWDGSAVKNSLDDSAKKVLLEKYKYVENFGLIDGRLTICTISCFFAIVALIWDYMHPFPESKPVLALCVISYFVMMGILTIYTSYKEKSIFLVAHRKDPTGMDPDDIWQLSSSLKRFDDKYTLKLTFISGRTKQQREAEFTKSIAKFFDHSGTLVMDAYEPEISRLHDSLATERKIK

Structure (SMILES)	SILAC ratio Spcs2 ([1]; competitor 25 μM)	SILAC ratio Kpna2 ([2]; competitor 25 μM)	SILAC ratio, DCAKD (Q8BHC4) ([5]; competitor 25 μM)	SILAC ratio, Dcakd ([5]; competitor 25 μM)	SILAC ratio Mest ([6]; competitor 25 μM)	SILAC ratio, Acadl ([7]; competitor 25 μM)	SILAC ratio, Pisd ([4]; competitor 25 μM)	SILAC ratio (AEA-DA competition) ([3]; competitor 25 μM)	further results
CCCCC/C=C\C/C=C\C/C=C\C/C=C\CCCC(=O)NCCO [AEA, anandamide, reference compound]									SILAC ratio Spcs2 ([1]; competitor 200 μM): 1.7; SILAC ratio Kpna2 ([2]; competitor 200 μM): 1.5; SILAC ratio (AEA-DA competition) ([3]; competitor 200 μM): 0.9; SILAC ratio, Pisd ([4]; competitor 200 μM): 1.8; SILAC ratio, DCAKD (Q8BHC4) ([5]; competitor 200 μM): 1.9; SILAC ratio, Dcakd ([5]; competitor 200 μM): 1.9; SILAC ratio Mest ([6]; competitor 200 μM): 1.5; SILAC ratio, Acadl ([7]; competitor 200 μM): 1.1
O=C(/C=C/c1cccnc1)NCCCCC1CCN(C(=O)c2ccccc2)CC1 [FK-866, reference compound]	1.3	1.2	1.1	1.1	1.2	12.4			
CN1CCN(C(=O)c2c(-c3ccccc3)c3cc([N+](=O)[O-])ccc3n2C)CC1 [KML110, (1-Methyl-5-nitro-3-phenyl-1H-indol-2-yl)(4-methylpiperazin-1-yl)methanone]	1.6	1.2		1.4	1.3	1.8	1.4		
CN1CCN(C(=O)c2[nH]c3ccc([N+](=O)[O-])cc3c2-c2ccccc2)CC1 [MJN228, (4-Methylpiperazin-1-yl)(5-nitro-3-phenyl-1H-indol-2-yl)methanone]	1.4	1.2	1.4	1.4	1.4	1.8	1.4	1.0	SILAC ratio Spcs2 ([1]; competitor 10 μM): 1.2; SILAC ratio Spcs2 ([1]; competitor 50 μM): 1.5; SILAC ratio Spcs2 ([1]; competitor 100 μM): 1.8; SILAC ratio Kpna2 ([2]; competitor 10 μM): 1.3; SILAC ratio Kpna2 ([2]; competitor 50 μM): 0.9; SILAC ratio Kpna2 ([2]; competitor 100 μM): 1.3; SILAC ratio (AEA-DA competition) ([3]; competitor 10 μM): 0.8; SILAC ratio (AEA-DA competition) ([3]; competitor 50 μM): 0.7; SILAC ratio, Dcakd ([5]; competitor 10 μM): 1.2; SILAC ratio, Dcakd ([5]; competitor 50 μM): 1.5; SILAC ratio, Dcakd ([5]; competitor 100 μM): 1.9; SILAC ratio Mest ([6]; competitor 10 μM): 1.2; SILAC ratio Mest ([6]; competitor 50 μM): 1.3; SILAC ratio Mest ([6]; competitor 100 μM): 1.6; SILAC ratio, Acadl ([7]; competitor 10 μM): 1.4; SILAC ratio, Acadl ([7]; competitor 50 μM): 2.0; SILAC ratio, Acadl ([7]; competitor 100 μM): 2.4
C=CCN(C)CCCCCCOc1ccc(C(=O)c2ccc(Br)cc2)c(F)c1 [Ro 48-8071, reference compound]	1.2	0.9	1.0	1.0	1.2	1.3	1.3	0.7	
